These results are taken from patent US8609608B2, “Antimicrobial peptides” (C3 Jian, Inc., priority 2007, dated 2013).

Where two headings read alike, the source gives them in different places. Where no end group is shown, it is not given here.

The MIC is the least concentration at which growth counts as inhibited. Low readings indicate inhibition by little substance, high ones a need for much substance.

Assay [1] concerns clinical isolates of S. mutans. Format: cell-based, Streptococcus mutans. The procedure:
S. mutans clinical isolates UA140 (32), UA159 (1), T8 (33), ATCC 25175, GS5 (Kuramitsu and Ingersoll (1977) Infect Immun., 17: 330-337), and all gram-positive strains listed below (see Table 9) were grown under anaerobic conditions in brain heart infusion or Todd-Hewitt (TH) broth (Difco) overnight at 37° C. prior to use (Eckert et al. (2006) Antimicrob. Agents Chemother. 50: 3651-3657). Veillonella atypica PK1910 was grown in Veillonella medium (Egland et al. (2004) Proc. Natl. Acad. Sci., USA, 101: 16917-16922). All strains were grown in an anaerobic atmosphere of 80% N2, 10% CO2, and 10% H2.
Antibacterial growth inhibition assays were performed using sterile 96-well plates in a final volume of 100 μl, TH or Veillonella medium as described previously (Qi et al. (2005) FEMS Microbial Lett. 251: 321-326). Briefly, bacterial cells were grown overnight to an optical density at 600 nm of 0.75 to 0.8 (corresponding to 1×10^8 CFU/ml) and then diluted to 1×10^5 CFU/ml in broth and aliquoted onto plates. An appropriate volume of peptide stock solution (5 to 20 mg/ml, in water or methanol, depending on solubility) was then added to the first column of the plate to give 500 μg/ml or 512 μg/ml, followed by serial 1:2 dilutions across the plate to give wells containing peptides ranging from 500 to 1.95 μg/ml or 512 to 2 μg/ml. Methanol alone was also added to control for the effects of the solvent. The plates were then incubated at 37° C. under anaerobic conditions for 16 to 20 h without shaking, and the MIC was determined as the concentration of peptide present in the last clear well after visual inspection. Up to 5% (vol/vol) methanol was found not to be antimicrobial (data not shown). MICs were determined in triplicate for all bacteria.

Another assay deals with P. aeruginosa. The assay is described as follows: MIC against P. aeruginosa. Format: cell-based, Pseudomonas aeruginosa.
In a further assay the test system is S. aureus. To be noted: Killing Peptide Library #7.

In assay [1] (clinical isolates of), RALKRIKHVLK [Peptide B-64, RALKRIKHVLK] registered an MIC of over 125 µg/mL. As for “RFRHFQERY-NH2 [Peptide S6L1-8, RFRHFQERY*]”, in assay [1] (clinical isolates of), the “MIC S. mutans” value was found to be 64 µg/mL. Also, the “MIC P. aeruginosa” value in the assay with P. aeruginosa was over 500 µg/mL. The “MIC S. aureus” value against S. aureus turned out to be 125 µg/mL. In assay [1] (clinical isolates of), “KLVQQLKNIFR-OH [Peptide B-59, KLVQQLKNIFR]” returned an MIC of over 125 µg/mL.

For the substance “RILKELKNLFK-OH [Peptide B-40, RILKELKNLFK]”, the minimal inhibitory concentration (MIC) in assay [1] (clinical isolates of) was over 250 µg/mL. In the case of “VGKCVKLLY-NH2 [Peptide S6L1-4, VGKCVKLLY*]”, in assay [1] (clinical isolates of), the “MIC S. mutans” value stood at 125 µg/mL. Further, the “MIC P. aeruginosa” value in the assay on P. aeruginosa came to 250 µg/mL. Moreover, in the assay with S. aureus, the “MIC S. aureus” value was 500 µg/mL. The substance RRRWWWR [Peptide 1C-3, RRRWWWR] came in with an MIC in assay [1] (clinical isolates of) of 32 µg/mL. In assay [1] (clinical isolates of), RRRWWWK [Peptide 3C-3, RRRWWWK] yielded an MIC of 31.25 to 125 µg/mL. Take “VKNLAELVHRF-NH2 [Peptide B-45, VKNLAELVHRF*]”: the minimum inhibitory concentration (MIC) in assay [1] (clinical isolates of) was over 250 µg/mL. The same measure, in the same setting: for RRRRWWK [Peptide 3C-1, RRRRWWK] the value was 125 µg/mL; for “ATHLLHALQRF-NH2 [Peptide B-46, ATHLLHALQRF*]”, over 250 µg/mL. Still for that read-out and setting: for RWRKRWK [Peptide 4C-4, RWRKRWK] the value was 125 to 500 µg/mL; for “KLVEQLKEIFR-OH [Peptide B-43, KLVEQLKEIFR]”, over 250 µg/mL; for RVLNQVKQILK [Peptide B-60, RVLNQVKQILK], over 125 µg/mL. RRRKWWK [Peptide 4C-3, RRRKWWK]: in assay [1] (clinical isolates of), the minimum inhibitory concentration (MIC) was 125 µg/mL. For the substance “FKTFLKWLHRF-NH2 [Peptide B-37, FKTFLKWLHRF*]”, the “activity against S. mutans by MIC, in words” value (shortened to “activity against S. mutans”) in assay [1] is reported as “active but to a lesser degree than B-33 or B-34”. For the same substance, in assay [1] (clinical isolates of), the MIC worked out at 24 µg/mL. RRWWRRK [Peptide 3C-2, RRWWRRK]: in assay [1] (clinical isolates of), the MIC is 125 µg/mL. The same measure, in the same setting: next, “AKRLLKVLKRF-NH2 [Peptide B-62, AKRLLKVLKRF*]”: 16 to 32 µg/mL.

In assay [1] (clinical isolates of), “RWRRWWRHFHHFFH-NH2 [α-9, RWRRWWRHFHHFFH*]” showed an MIC of 8 µg/mL. Still for that read-out and setting: for “YLLTEFQHLFK-OH [Peptide B-52, YLLTEFQHLFK]” the value was over 125 µg/mL; for “VKTLLHIFQRF-NH2 [Peptide B-42, VKTLLHIFQRF*]”, 31.25 to 125 µg/mL. On the same count and under the same terms, next, KLAQKVKRVLR [Peptide B-63, KLAQKVKRVLR]: over 125 µg/mL; “VKKLAKLVRRF-NH2 [Peptide B-61, VKKLAKLVRRF*]”: 16 to 32 µg/mL. “IKQLLHFFQRFGGGRWRRLLKKLHHLLH-NH2 [FBα-13, IKQLLHFFQRF-GGG-RWRRLLKKLHHLLH*]”: the “MIC (fusion library peptides)” value in assay [1] (clinical isolates of) is 16 µg/mL.

For the substance “RVLQEIKQILK-OH [Peptide B-44, RVLQEIKQILK]”, the minimal inhibitory concentration (MIC) in assay [1] (clinical isolates of) was over 250 µg/mL. Still for that read-out and setting: next, “KLFKRWKHLFR-OH [Peptide B-35, KLFKRWKHLFR]”: 31.25 to 125 µg/mL; “KLLQTFKQIFR-OH [Peptide B-39, KLLQTFKQIFR]”: over 250 µg/mL. Same read-out and setting: for RRWWRRF-NH2 [Peptide 2C-2, RRWWRRF*] the value was 12 to 24 µg/mL; for “RALHEAKEALK-OH [Peptide B-48, RALHEAKEALK]”, over 250 µg/mL. Take “IKVFAKQKY-NH2 [Peptide S6L1-7, IKVFAKQKY*]”: in assay [1] (clinical isolates of), the “MIC S. mutans” value is over 500 µg/mL. The “MIC P. aeruginosa” value in the assay on P. aeruginosa was over 500 µg/mL. Further, the “MIC S. aureus” value against S. aureus is over 500 µg/mL. For “KFVKLILAY-NH2 [Peptide S6L1-5, KFVKLI LAY*]”, the “activity against S. mutans” value in assay [1] is “moderate activity”. Further, the “MIC S. mutans” value in assay [1] (clinical isolates of) amounted to 32 µg/mL. In addition, the “MIC P. aeruginosa” value in the assay on P. aeruginosa came to 92 µg/mL. For the same substance, the “MIC S. aureus” value against S. aureus is over 500 µg/mL. Regarding “LYHFLHWFQRF-NH2 [Peptide B-50, LYHFLHWFQRF*]”, in assay [1], the “activity against S. mutans” value was “weakly active”. Also, in assay [1] (clinical isolates of), the MIC came to 125 µg/mL. For “VKQLLKIFNRF-NH2 [Peptide B-58, VKQLLKIFNRF*]” the same measures were “active but to a lesser degree than B-33 or B-34” and 32 to 62.5 µg/mL. As to KLKKLLKKLKKLLK [α-5, KLKKLLKKLKKLLK], in assay [1] (clinical isolates of), the MIC came out at 8 µg/mL.

Regarding “AQAAHQAAHAAHQF-NH2 [α-4, AQAAHQAAHAAHQF*]”, the “activity against S. mutans” value in assay [1] is “inactive”. In assay [1] (clinical isolates of), this substance registered an MIC of over 125 µg/mL. Substance “RLLKRFKHLFK-OH [Peptide B-36, RLLKRFKHLFK]” had an MIC in assay [1] (clinical isolates of) of 31.25 to 125 µg/mL.

In the case of “FKKFWKWFRRFGGGRWRRLLKKLHHLLH-NH2 [FBα-12, FKKFWKWFRRF-GGG-RWRRLLKKLHHLLH*]”, in assay [1] (clinical isolates of), the “MIC (fusion library peptides)” value turned out to be 16 µg/mL.

In assay [1] (clinical isolates of), RWRWRWK [Peptide 3C-4, RWRWRWK] came in with a minimum inhibitory concentration (MIC) of 32 µg/mL. Still for that read-out and setting: for RRRKWWK [Peptide 4C-1, RRRKWWK] the value was 250 µg/mL. For the substance “KLVKLVFLY-NH2 [Peptide S6L1-6, KLVKLVFLY*]”, in assay [1] (clinical isolates of), the “MIC S. mutans” value was found to be 125 µg/mL. Moreover, the “MIC P. aeruginosa” value with P. aeruginosa is over 500 µg/mL. In the assay on S. aureus, the “MIC S. aureus” value was over 500 µg/mL. The substance “KLKKLLKRWRRWWR-OH [α-10, KLKKLLKRWRRWWR]” registered an MIC in assay [1] (clinical isolates of) of 8 µg/mL. With “IKTLLHFFQRF-NH2 [Peptide B-54, IKTLLHFFQRF*]”, the “activity against S. mutans” value in assay [1] is “active but to a lesser degree than B-33 or B-34”. This substance came in with an MIC in assay [1] (clinical isolates of) of 32 to 62.5 µg/mL. RRRFWWR [Peptide 2C-1, RRRFWWR] registered an MIC in assay [1] (clinical isolates of) of 31.25 to 125 µg/mL.

As for “FHYFWHWFHRF-NH2 [Peptide B-49, FHYFWHWFHRF*]”, in assay [1], the “activity against S. mutans” value is “weakly active”. Also, the MIC in assay [1] (clinical isolates of) stood at 125 µg/mL. Consider RRWWRRW [Peptide 1C-2, RRWWRRW], for which, in assay [1] (clinical isolates of), the minimal inhibitory concentration (MIC) was found to be 16 µg/mL. As for RRWKRRK [Peptide 4C-2, RRWKRRK], in assay [1] (clinical isolates of), the MIC amounted to 500 µg/mL. Still for that read-out and setting: next, “LQLLKQLLKLLKQF-NH2 [α-7, LQLLKQLLKLLKQF*]”: 8 µg/mL. With “AQAAKQAAKAAKQF-NH2 [α-8, AQAAKQAAKAAKQF*]”, the “activity against S. mutans” value in assay [1] was “inactive”. In assay [1] (MIC range or value from all S. mutans isolates tested, binary, alpha-helix and RW libraries), this substance gave an MIC of over 125 µg/mL.

In the case of “KLAENVKEILR-OH [Peptide B-47, KLAENVKEILR]”, the MIC in assay [1] (clinical isolates of) was over 250 µg/mL. With “LKQFVKFIHRF-NH2 [Peptide B-57, LKQFVKFIHRF*]”, the “activity against S. mutans” value in assay [1] was “active but to a lesser degree than B-33 or B-34”. This substance gave an MIC in assay [1] (clinical isolates of) of 24 µg/mL. The substance “KLLQTFNQIFR-OH [Peptide B-55, KLLQTFNQIFR]” had an MIC in assay [1] (clinical isolates of) of over 125 µg/mL.

Regarding RRRRWWW [Peptide 1C-1, RRRRWWW], in assay [1] (clinical isolates of), the MIC came out at 16 µg/mL. As to “LKQFVHFIHRF-NH2 [Peptide B-41, LKQFVHFIHRF*]”, the “activity against S. mutans” value in assay [1] is “active but to a lesser degree than B-33 or B-34”. Further, in assay [1] (clinical isolates of), the MIC was 32 µg/mL. For “FKTFLQWLHRF-NH2 [Peptide B-53, FKTFLQWLHRF*]” the same measures were “active but to a lesser degree than B-33 or B-34” and 16 to 64 µg/mL. As for RWRWRWR [Peptide 1C-4, RWRWRWR], the MIC in assay [1] (clinical isolates of) turned out to be 32 µg/mL.

Consider “KLKKLLKHLHHLLH-NH2 [α-12, KLKKLLKHLHHLLH*]”, for which the MIC in assay [1] (clinical isolates of) is 8 µg/mL. Substance “YLFQTWQHLFR-OH [Peptide B-51, YLFQTWQHLFR]” showed an MIC in assay [1] (clinical isolates of) of over 125 µg/mL.
